{"source": "patent US20120264784A1", "about": "“METHODS OF TREATING ELEVATIONS IN MTOR SIGNALING” (priority 2009, published 2012)", "key": {"[1]": {"system": "area CA1 of hippocampal slices", "experiment": "Paired pulse facilitation (presynaptic LTD) in acute hippocampal slices", "parameters": "species or system mice", "settings": "for PPF (ratio of fEPSP slope of stimulus 2 to stimulus 1): 50 ms inter-stimulus interval, 60 minutes post DHPG (FIG. 3D)", "procedure": "(§1) Field recordings were performed in a submersion chamber, perfused with ACSF (about 2-3 ml/min) at 30° C. Field EPSPs (fEPSPs) were recorded in CA1 stratum radiatum with extracellular electrodes filled with ACSF. Baseline responses were evoked by stimulation of the Schaffer collaterals at 0.033 Hz with a 2-contact cluster electrode (FHC) using about a 0.2 ms stimulus yielding about 40-60% of the maximal response. fEPSP recordings were filtered at about 0.1 Hz-1 kHz, digitized at 10 kHz, and analyzed using pClamp9 (Axon Instruments). The initial slope of the response was used to assess changes in synaptic strength. Data were normalized to the baseline response and are presented as group means±SEM. LTD was measured by comparing the average response about 55-60 minutes post DHPG application to the average of the last 5 minutes of baseline.\n(§2) Input output function was examined by stimulating slices with incrementally increasing current (about 20, about 40, about 80, about 120, about 200, about 300 μA) and recording the fEPSP response. Paired pulse facilitation was induced by applying two pulses at different interstimulus intervals (about 10, about 20, about 50, about 100, about 200, about 300, about 500 ms). Facilitation was measured by the ratio of the fEPSP slope of stimulus 2 to stimulus 1. NMDAR-dependent LTD was induced by delivering 900 test pulses at 1 Hz. mGluR-LTD was induced by applying R, S-Dihydroxyphenylglycine (R,S-DHPG, 50 μM) or S-Dihydroxyphenylglycine (S-DHPG, 25 μM) for about 5 minutes, the effects of which were followed for 60 minutes following treatment. In some experiments slices were incubated with the protein synthesis inhibitor cycloheximide (60 μM) for 30 minutes as follows: about 20 minutes during baseline recording, about 5 minutes during DHPG application and about 5 minutes post DHPG application."}, "[2]": {"system": "area CA1 of hippocampal slices", "experiment": "DHPG induced mGluR-LTD, field EPSP recordings in acute hippocampal slices", "parameters": "species or system mice", "procedure": "Acute hippocampal slices were prepared from P25-30 animals in ice-cold dissection buffer containing (in mM): NaCl 87, Sucrose 75, KCl 2.5, NaH2PO4 1.25, NaHCO3 25, CaCl2 0.5, MgSO4 7, Ascorbic acid 1.3, and D-glucose 10 (saturated with 95% O2/5% CO2). Immediately following slicing the CA3 region was removed. Slices were recovered in artificial cerebrospinal fluid (ACSF) containing (in mM): NaCl 124, KCl 5, NaH2PO4 1.23, NaHCO3 26, CaCl2 2, MgCl2 1 and D-glucose 10 (saturated with 95% O2/5% CO2) at 32.5° C. for about >3 hours prior to recording.\nas §1, §2\nFor mGluR PAM experiments, slices were pretreated with CDPPB (10 μM) or DMSO control for about 30 minutes in same manner as above, either in the presence of cycloheximide or control ACSF. For rapamycin experiments, slices were pretreated with rapamycin (20 nM) or DMSO control, with or without cycloheximide, for at least 30 minutes prior to DHPG application and throughout the entire experiment."}, "[3]": {"system": "wildtype and Tsc2^+/− mice", "experiment": "Context fear-conditioning (context discrimination)", "assay_type": "in vivo", "settings": "for effect on context discrimination (in words): 10 mg/kg i.p. 30 minutes prior to training; for percentage of time spent freezing: single injection 10 mg/kg i.p. 30 minutes prior to training, tested 24 hours later", "procedure": "Context fear-conditioning experiments were employed to assess improvements in cognitive processing following administration of a composition that activates Group I mGluR signaling, such as by administration of mGluR5PAMs. Context fear-conditioning was performed using a modification of a previously described procedure (Ehninger, D., et al., Nat Med 14, 843-8 (2008). Wildtype and Tsc2^+/− mice (8-12 weeks old) are habituated to the testing room and experimenter for 3 days prior to training On the day of training, mice is placed in the training context and delivered one 0.80 mA shocks (2 sec). The mice were allowed about 3 minutes to explore context before conditioning and were removed about 15 sec after the shock was given and returned to home cage. Conditioned fear response was assessed 24 hours later by a trained observer measuring the percentage of time spent freezing during the test period (about 3 min session). To determine context specificity of the conditioned response, mice trained at the same time were separated into two groups: one group was tested in the same training context and the other tested in a novel context. This novel context was created by varying: distal cues, odor, floor material, and lighting of the testing apparatus. For rescue experiments, animals received a single injection of CDPPB (10 mg/kg, i.p.) about 30 minutes prior to training session.\nCognitive impairments in the Tsc2^+/− mice were improved by treating the animals with the mTORC1 inhibitor rapamycin (Ehninger, D., et al., Nat. Med. 14: 843-848 (2008)). A robust phenotype was reported to be an impairment in the ability of the Tsc2^+/− mice to distinguish between familiar and novel contexts in a fear conditioning paradigm. The advantage of this paradigm is the learning occurs in one trial, making it amenable to acute drug treatment, and the memory is hippocampus-dependent. The mice are first exposed to a distinctive context in which they receive an aversive foot shock. The next day, context discrimination is tested by dividing the animals into two groups, one placed in the familiar context associated with the shock, and the other placed in a novel context (FIG. 6A). Context discrimination is assessed by measuring the time the animals express fear by freezing in each context."}}, "data": [{"smiles": "N[C@@H](C(=O)O)c1cc(O)cc(O)c1", "note": "(racemic) [DHPG, (R,S)-3,5-dihydroxyphenylglycine]", "values": [{"measurement": "PPF (ratio of fEPSP slope of stimulus 2 to stimulus 1)", "setting": "[1]; Tsc2^+/− slices", "result": "1.63±0.02"}, {"measurement": "PPF (ratio of fEPSP slope of stimulus 2 to stimulus 1)", "setting": "[1]; WT slices", "result": "1.59±0.04"}, {"measurement": "DHPG induced LTD (fEPSP slope normalized to baseline)", "setting": "[2]; slices from Tsc2^+/− mice, DHPG alone, 5 min, 55-60 min post DHPG (FIG. 3B)", "result": "85.2±2.7", "unit": "%"}, {"measurement": "DHPG induced LTD (fEPSP slope normalized to baseline)", "setting": "[2]; slices from WT mice, DHPG alone, 5 min, 55-60 min post DHPG (FIG. 3B)", "result": "74.1±2.0", "unit": "%"}]}, {"smiles": "N#Cc1cccc(C(=O)Nc2cc(-c3ccccc3)nn2-c2ccccc2)c1", "note": "[CDPPB, 3-cyano-N-(1,3-diphenyl-1H-pyrazol-5-yl)benzamide]", "values": [{"measurement": "effect on context discrimination (in words)", "setting": "[3]; Tsc2^+/− mice", "result": "sufficient to correct the deficit in context discrimination"}, {"measurement": "percentage of time spent freezing", "setting": "[3]; Tsc2^+/− mice, familiar context", "result": "44.5±4.3", "unit": "%"}, {"measurement": "percentage of time spent freezing", "setting": "[3]; Tsc2^+/− mice, novel context", "result": "31.6±3", "unit": "%"}, {"measurement": "effect on context discrimination (in words)", "setting": "[3]; WT mice", "result": "no effect"}, {"measurement": "percentage of time spent freezing", "setting": "[3]; WT mice, familiar context", "result": "42.3±3.7", "unit": "%"}, {"measurement": "percentage of time spent freezing", "setting": "[3]; WT mice, novel context", "result": "26.4±3.6", "unit": "%"}, {"measurement": "effect on DHPG induced LTD (in words)", "setting": "[2]; slices from Tsc2^+/− mice", "result": "restored the magnitude of mGluR-LTD in Tsc2^+/− mice to WT levels"}, {"measurement": "DHPG induced LTD (fEPSP slope normalized to baseline)", "setting": "[2]; slices from Tsc2^+/− mice, CDPPB 10 μM co-applied with cycloheximide (FIG. 5E)", "result": "84.8±1.8", "unit": "%"}, {"measurement": "DHPG induced LTD (fEPSP slope normalized to baseline)", "setting": "[2]; slices from Tsc2^+/− mice, pretreatment with CDPPB 10 μM (FIG. 5D)", "result": "72.7±4.4", "unit": "%"}, {"measurement": "effect on DHPG induced LTD in the presence of cycloheximide (in words)", "setting": "[2]; slices from Tsc2^+/− mice, with cycloheximide", "result": "completely eliminated by cycloheximide"}]}, {"smiles": "C[C@@H]1C[C@@H]([C@H](O)CC2CC(=O)NC(=O)C2)C(=O)[C@@H](C)C1", "note": "[CHX, cycloheximide]", "values": [{"measurement": "PPF (ratio of fEPSP slope of stimulus 2 to stimulus 1)", "setting": "[1]; Tsc2^+/− slices, DHPG+CHX", "result": "1.62±0.04"}, {"measurement": "PPF (ratio of fEPSP slope of stimulus 2 to stimulus 1)", "setting": "[1]; WT slices, DHPG+CHX", "result": "1.58±0.05"}, {"measurement": "effect on changes in PPF following DHPG (in words)", "setting": "[1]; WT slices, cycloheximide 60 μM (FIG. 3D)", "result": "not inhibited"}, {"measurement": "effect on DHPG induced LTD (in words)", "setting": "[2]; slices from Tsc2^+/− mice", "result": "no effect on LTD"}, {"measurement": "DHPG induced LTD (fEPSP slope normalized to baseline)", "setting": "[2]; slices from Tsc2^+/− mice, cycloheximide 60 μM (FIG. 3C)", "result": "83.5±2.1", "unit": "%"}, {"measurement": "effect on DHPG induced LTD (in words)", "setting": "[2]; slices from WT mice", "result": "reliably reduced"}, {"measurement": "DHPG induced LTD (fEPSP slope normalized to baseline)", "setting": "[2]; slices from WT mice, pretreatment with cycloheximide 60 μM (FIG. 3A)", "result": "85.6±3.4", "unit": "%"}]}, {"smiles": "CO[C@H]1C[C@@H]2CC[C@@H](C)[C@@](O)(O2)C(=O)C(=O)N2CCCC[C@H]2C(=O)O[C@H]([C@H](C)C[C@@H]2CC[C@@H](O)[C@H](OC)C2)CC(=O)[C@H](C)/C=C(\\C)[C@@H](O)[C@@H](OC)C(=O)[C@H](C)C[C@H](C)/C=C/C=C/C=C/1C", "note": "[RAP, rapamycin]", "values": [{"measurement": "DHPG induced LTD (fEPSP slope normalized to baseline)", "setting": "[2]; slices from Tsc2^+/− mice, pretreatment with rapamycin 20 nM (FIG. 5B)", "result": "75.3±3", "unit": "%"}, {"measurement": "DHPG induced LTD (fEPSP slope normalized to baseline)", "setting": "[2]; slices from Tsc2^+/− mice, rapamycin 20 nM with cycloheximide (FIG. 5C)", "result": "89.3±2.4", "unit": "%"}, {"measurement": "effect on DHPG induced LTD (in words)", "setting": "[2]; slices from WT mice", "result": "no effect"}, {"measurement": "DHPG induced LTD (fEPSP slope normalized to baseline)", "setting": "[2]; slices from wildtype animals, pretreatment with rapamycin 20 nM (FIG. 5A)", "result": 73.0, "unit": "%"}]}]}
